Source: patent US9089514B2, “Composition and method for inhibiting biogenic sulfide generation” (Arkion Life Sciences, priority 2010, dated 2015)
Several values for one entry are separate records, joined by “and”; a condition that tells them apart may be missing. Equal entries are not always repeated.

Key:
Type in all cases: cell-based, Prudhoe Bay sulfate reducing bacteria
[1] = system: sulfate reducing bacteria (SRB) biofilms; assay: Test Series #1: inhibition of H2S biogeneration from SRB biofilms on granite chips; conditions: for Sulfides Day 1: day 1 after treatment; for Sulfides Day 1 / Sulfides Day 2 / Sulfides Day 3: THPS 51 ppmw, AQ or AHQ (AHQ-slurry-1) 25 ppmw per tube, 30° C.; for Sulfides Day 2: day 2 after treatment; for Sulfides Day 3: day 3 after treatment
Procedure: (§1) 1. Load 7 grams of crushed granite chips into 15-ml culture tubes; autoclave.
(§2) 2. Prepare an inoculum by adding a culture of Prudhoe Bay sulfate reducing bacteria to a flask containing an appropriate iron-free culture medium for sulfate reducing bacteria that further contains 90% deaerated artificial sea water. Incubate bacteria anaerobically at 30° C. for 3-4 days.
(§3) 3. Fill each 15 ml culture tube containing granite chips with the inoculum; incubate tubes anaerobically at 30° C. for 7-11 days in a Lab-Line Orbit Environ-Shaker set at 30° C. and 120 rpm. All incubation steps for the bacteria in the culture tubes were performed is in the Environ-Shaker.
(§4) 4. Pour off spent medium and fill with fresh medium. Incubate for 6-7 days then replace medium with fresh medium again. Repeat medium change after 4-8 days and incubate for 3-5 additional days.
(§5) 5. Treat the biofilms that have grown on the granite chips as described below. Incubate at 30° C.
(§6) 6. Monitor the aqueous sulfide content in the tubes daily for up to three days, beginning the day after treatment, to determine the effectiveness of each treatment option on generation of hydrogen sulfide. Sulfide dissolved in the medium was determined in mg/L using Hach Method 8131 for the Hach DR-2010 spectrophotometer. The method utilizes methylene blue to measure total sulfides. The sulfide level in each tube was determined by gently inverting the tube several times, uncapping the tube and quickly removing a 125 μl aliquot of solution, and recapping the tube. The aliquot was diluted in 24.9 ml of deionized water in a quartz cuvette for the Hach procedure. The procedure is summarized in Table 1 for three separate test series.
Following the growth of the sulfate reducing bacteria (SRB) biofilms on the granite chips in the culture tubes, the biofilms were treated by injecting the appropriate test solution and then gently tumbling the tubes for two minutes on a Barnstead/Thermolyne Labquake Tube Shaker to allow the treatment solution to dynamically contact the biofilms.
Test compound solutions were injected into the tubes. THPS was added to 51 ppmw per tube. AQ and AHQ-slurry-1 were added to 25 ppmw AQ or AHQ per tube. Each tube contained about 14 ml of medium. The tubes were tumbled for two minutes, then moved to a nitrogen glove bag. The liquid was removed and the tubes were washed once with is medium and then refilled with medium. The tubes were then tumbled once more for two minutes before being placed in a Lab-Line Orbit Environ-Shaker set at 30° C. and 120 rpm for incubation.
Control tubes contained biofilms on granite chips and culture medium, but no test compound. Control tubes were otherwise handled as described above for test-compound tubes.
In THPS-treated tubes all of the residual THPS was removed so that biocidal activity occurred only during the contact time while tumbling. In AQ and AHQ treated tubes, residual test solutions were allowed to remain in the tubes to simulate treatment in a tank, where AQ or AHQ settles in the biofilm/sludge at the bottom of the vessel. Treatments were performed in duplicate.

[2] = system: sulfate reducing bacteria (SRB) biofilms; assay: Test Series #2: AQ, AHQ and AQ:AHQ slurries, sulfide monitoring in SRB biofilm tubes; conditions: for Sulfides Day 1: day 1, same combined mass of active AQ plus AHQ; for Sulfides Day 1 / Sulfides Day 2 / Sulfides Day 3: AHQ-slurry-2 used; for Sulfides Day 2: day 2, same combined mass of active AQ plus AHQ; for Sulfides Day 3: day 3, same combined mass of active AQ plus AHQ
Procedure: as §1, §2, §3, §4, §5, §6
(§7) This test series was performed to further compare the efficacy of slurries of AHQ and AQ and combinations of AHQ/AQ in slurries in controlling H2S emissions. AHQ-slurry-2 was used in this series of experiments. The tests were performed by first removing the spent medium from the tubes, refilling with fresh medium, treating with the test solution, tumbling the tubes for two minutes, and then incubating at 30° C. in the Lab-Line Orbit Environ-Shaker.
Each test was made with the same combined mass of active AQ plus AHQ. Results, as summarized in Table 3 and FIG. 2, confirmed the results of Series #1 in that all treatments were effective compared with the control.

[3] = system: sulfate reducing bacteria (SRB) biofilms; assay: Test Series #3b: simulated gravity settling, AQ vs AHQ-slurry-2, sulfide monitoring
Procedure: as §6
(§8) Gravity settling in the tank was simulated by spinning the culture tubes after treatment in a laboratory centrifuge at 2000 to 2700 rpm. The AQ or AHQ particles then “settled” to the bottom of the tube and were able to deposit into the biofilm on the granite chips. The medium above the granite chips was then removed and replaced with fresh medium. The tubes were then incubated at 30° C. in the Lab-Line Orbit Environ-Shaker. The concentration of AQ or AHQ in the removed medium was analyzed to determine the amount of AQ or AHQ deposited in the biofilm. Experiments were run with duplicate samples.
Test Series #3b was performed with the same procedure as Test Series #3a to compare the efficacy of the AQ test mixture (AQ) with that of AHQ-slurry-2 at the same AHQ or AQ mass loading (0.254 mg). The tubes were spun for 20 seconds.

[4] = system: sulfate reducing bacteria (SRB) biofilms; assay: AHQ di-alkali salt solution vs AHQ-slurry-2 by the Test Series #2 procedure; conditions: 18 ppmw AHQ
Procedure: as §6, §7
Each test treatment contained 18 ppmw AHQ. […] However, under some circumstances, larger particle sizes are preferable. […]

[5] = system: sulfate reducing bacteria (SRB) biofilms; assay: Test Series #3a: simulated gravity settling in tank (centrifugation), sulfide monitoring; conditions: 0.254 mg AHQ
Procedure: as §6, §8
Two series of tests were performed with this procedure. Series #3a compared the efficacy of treating with the AHQ di-alkali salt test solution (AHQ) and the AHQ test mixture #2 (AHQ-slurry-2) at the same AHQ mass loading (0.254 mg AHQ). Two different centrifugation times (20 sec, 60 sec) were utilized in Test Series #3a to represent two different tank residence times.

Row | Compound | inhibiting H2S biogeneration from SRB biofilms (comparison in words) [1] | Sulfides Day 1 [1] | Sulfides Day 2 [1] | Sulfides Day 3 [1] | Sulfides Day 1 [2] | Sulfides Day 2 [2] | Sulfides Day 3 [2] | Sulfides Day 1 ([3]; spun 20 sec, 0.254 mg AHQ or AQ, day 1) | Sulfides Day 2 ([3]; spun 20 sec, 0.254 mg AHQ or AQ, day 2) | reducing sulfides (comparison in words) [4] | sulfides on day 3 of treatment ([4]; Test Series #2 procedure (no settling)) [mg/L] | Sulfides Day 1 ([5]; centrifugation 20 sec) | Sulfides Day 2 ([5]; centrifugation 20 sec) | Sulfides Day 3 ([5]; centrifugation 20 sec) | Sulfides Day 1 ([5]; centrifugation 60 sec) | Sulfides Day 2 ([5]; centrifugation 60 sec) | Sulfides Day 3 ([5]; centrifugation 60 sec) | inhibiting the generation of H2S (comparison in words) [2] | inhibiting H2S generation (comparison in words) [3]
1 | O=C1c2ccccc2C(=O)c2ccccc21 [AQ, anthraquinone] | comparable to THPS treatment | 22.6 mg/L and 19 mg/L | 41.2 mg/L and 34.6 mg/L | 46.2 mg/L and 40.8 mg/L | 33.2 mg/L and 30.4 mg/L | 40 mg/L and 38.8 mg/L | 44.4 mg/L and 43.2 mg/L | 43.8 mg/L and 33.8 mg/L | 54.2 mg/L and 50.2 mg/L |  |  |  |  |  |  |  |  |  | 
2 | [Na+].[Na+].[O-]c1c2ccccc2c([O-])c2ccccc12 [AHQ, dialkali salt solution, anthrahydroquinone di-alkali salt] |  |  |  |  |  |  |  |  |  | superior to AHQ neutral slurry in reducing sulfides | 7.4 | 29 mg/L and 31 mg/L | 37.6 mg/L and 45.2 mg/L | 42 mg/L and 48.6 mg/L | 36.6 mg/L and 21.8 mg/L | 50.8 mg/L and 37 mg/L | 53.6 mg/L and 42.6 mg/L |  | 
3 | tetrakishydroxymethylphosphonium sulfate [THPS] |  | 18 mg/L and 19.8 mg/L | 39.6 mg/L and 38.4 mg/L | 46.2 mg/L |  |  |  |  |  |  |  |  |  |  |  |  |  |  | 
4 | Oc1c2ccccc2c(O)c2ccccc12 [AHQ, anthrahydroquinone] | superior to THPS, AQ, and the combination of THPS and AQ | 9.2 mg/L and 11.2 mg/L | 23 mg/L and 27 mg/L | 30.6 mg/L and 31 mg/L | 22.2 mg/L and 19.6 mg/L | 31 mg/L and 26.6 mg/L | 36.8 mg/L and 36.4 mg/L |  |  |  |  |  |  |  |  |  |  | more effective than AQ solution alone or AHQ/AQ neutral slurry combinations | superior to AQ in inhibiting H2S generation
